Holding throughout (assay): NCI anticancer screen, dose series, 48 h
Experiment [1] relates to SK-OV-3 ovarian.
Experiment [2] deals with OVCAR-3 ovarian.
The subject of experiment [3] is BT-549 breast.
For experiment [4], the system named is HCC-2998 colon.
In experiment [5] the test system is MALME-3M melanoma.
Experiment [6] deals with PC-3 prostate.
The test system of experiment [7] is RPMI-8226 leukemia.
For experiment [8], the system named is CAKI-1 renal.

GI50 and TGI data for 13 compounds are collected here from PubChem BioAssay (NCI).

Where “and” joins values, the source holds several entries; their conditions need not be identical. Equal values may be shown once.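 The compound was tested at five concentrations on cells cultured in 96-well plates, with a 48-hour exposure period. GI50 = concentration required for 50% inhibition of growth. TGI marks complete inhibition of growth.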 Some results are limits rather than exact numbers.

As for `COC(=O)Nc1ccc2ccc3c(NC(=O)OC)ccc4ccc1c2c43` (tested in a mixture with another compound), the GI50 in experiment [1] is 11.6 µM; in experiment [2], 10.6 µM; in experiment [3], 5.5 µM; in experiment [4], 9.99 µM; in experiment [5], 7.43 µM; in experiment [6], 6.89 µM. Further, the GI50 in experiment [7] is 8.22 µM; in experiment [8], 6.44 µM. Further, the TGI in experiment [1] is more than 50 µM; in experiment [2] it was 45.2 µM; in experiment [3], 14 µM; in experiment [4], 37.9 µM; in experiment [5], more than 50 µM; in experiment [6], 26 µM. Moreover, the TGI in experiment [7] was more than 50 µM; in experiment [8], 27.4 µM.

Take `N#C/C(=C\c1cn(-c2ccccc2)c2ccccc12)C(=O)O`: the GI50 in experiment [1] is 71.4 µM; in experiment [2] it was 18.8 µM; in experiment [3] it was 36.6 µM; in experiment [4], 49.5 µM; in experiment [5], more than 100 µM; in experiment [6] it was 58.3 µM. For the same compound, the GI50 is 43 µM in experiment [7] and 63.1 µM in experiment [8]. In addition, the TGI was more than 100 µM in experiment [1]; 43.9 µM in experiment [2]; more than 100 µM in experiment [3]; more than 100 µM in experiment [4]; more than 100 µM in experiment [5]; more than 100 µM in experiment [6]. For the same compound, the TGI in experiment [7] and in experiment [8] was more than 100 µM each time.

As for `COc1ccc(-c2ccc(/C=N/n3cn[nH]c3=S)o2)c([N+](=O)[O-])c1`, the GI50 was 45.5 µM in experiment [1]; 33.9 µM in experiment [2]; 30.1 µM in experiment [3]; 38.9 µM in experiment [4]; 23.8 µM in experiment [5]; 35.7 µM in experiment [6]. Also, the GI50 in experiment [7] was 22.5 µM; in experiment [8], 32.6 µM. Also, the TGI in experiment [1], in experiment [2], in experiment [3], in experiment [4], in experiment [5] and in experiment [6] was more than 100 µM in each case. Besides, the figures for the TGI in experiment [7] and in experiment [8] were 70.1 µM and more than 100 µM, respectively.

For the compound `S=C(Nc1ccccc1)c1ccccn1`, the GI50 in experiment [1] is more than 100 µM; in experiment [2] it was 31.6 µM; in experiment [3] it was 73.9 µM; in experiment [4], more than 100 µM; in experiment [5], more than 100 µM; in experiment [6] it was 54.7 µM. Also, the GI50 in experiment [7] is 41.7 µM; in experiment [8] it was 40.3 µM. The TGI in experiment [1], in experiment [2], in experiment [3], in experiment [4], in experiment [5] and in experiment [6] was more than 100 µM each time. For the same compound, the TGI in experiment [7] and in experiment [8] was more than 100 µM each time.

Turning to `CN(C)c1cccc2[nH]c(-c3[nH]ncc3Nc3ccnc(N)n3)nc12`, the GI50 was 0.073 µM in experiment [1]; less than 0.0121 µM in experiment [2]; 0.0165 µM in experiment [3]; 0.0276 µM in experiment [4]; 0.0359 µM in experiment [5]; 0.0147 µM in experiment [6]. The GI50 in experiment [7] is 0.281 µM; in experiment [8], less than 0.01 µM. Further, the TGI was 2.38 µM in experiment [1]; 1.09 µM in experiment [2]; 0.0979 µM in experiment [3]; 0.488 µM in experiment [4]; 0.114 µM in experiment [5]; 0.276 µM in experiment [6]. Further, the TGI worked out at 0.885 µM in experiment [7] and 1.01 µM in experiment [8].

Consider `Cn1cnc2c(F)c(Nc3ccc(Br)cc3Cl)c(C(=O)NOCCO)cc21`, for which the GI50 was > 10 µM and 63.4 µM in experiment [1]; > 10 µM and 62.9 µM in experiment [2]; > 10 µM and 30 µM in experiment [3]; 0.0213 µM and < 0.0171 µM in experiment [4]; less than 0.0187 µM in experiment [5]; more than 100 µM in experiment [6]. The GI50 in experiment [7] was > 10 µM and 28.2 µM; in experiment [8] it was > 2.6 µM and 17.9 µM. Besides, the TGI was more than 100 µM in experiment [1]; more than 100 µM in experiment [2]; more than 100 µM in experiment [3]; > 10 µM and 2.77 µM in experiment [4]; 0.018 µM in experiment [5]; more than 100 µM in experiment [6]. The TGI in experiment [7] and in experiment [8] was more than 100 µM in each case.

Regarding `Nc1nc(-n2cccn2)nc(-n2cccn2)c1Br`, the GI50 in experiment [1], in experiment [2], in experiment [3], in experiment [4], in experiment [5] and in experiment [6] was more than 100 µM in each case. In addition, the results for the GI50 in experiment [7] and in experiment [8] were more than 100 µM and 93.7 µM, respectively. Also, the TGI in experiment [1], in experiment [2], in experiment [3], in experiment [4], in experiment [5] and in experiment [6] was more than 100 µM in each case. The TGI in experiment [7] and in experiment [8] was more than 100 µM in each case.

As to `N#Cc1nc(-c2cccc(Br)c2)cc(-c2ccc(Nc3nc(N4CCCCC4)nc(N4CCCCC4)n3)cc2)c1N`, the GI50 in experiment [1] was 19.1 µM; in experiment [2], 1.76 µM; in experiment [3] it was 2.02 µM; in experiment [4], 2.31 µM; in experiment [5], 1.68 µM; in experiment [6] it was 1.94 µM. For the same compound, the GI50 in experiment [7] is 2.19 µM; in experiment [8], 1.93 µM. Besides, the TGI was more than 100 µM in experiment [1]; 3.54 µM in experiment [2]; 4.36 µM in experiment [3]; 6.62 µM in experiment [4]; 3.1 µM in experiment [5]; 7.11 µM in experiment [6]. Further, the figures for the TGI in experiment [7] and in experiment [8] were 24 µM and 5.03 µM, respectively.

As to `COC(=O)c1c2c(c(C)[n+]([O-])c1C)C(=O)C=C(NCc1ccc(Cl)cc1)C2=O`, the GI50 in experiment [1] is 1.85 µM; in experiment [2] it was 0.208 µM; in experiment [3] it was 1.22 µM; in experiment [4] it was 0.354 µM; in experiment [5], 0.157 µM; in experiment [6], 0.289 µM. Further, the GI50 in experiment [7] was 1.24 µM; in experiment [8], 0.109 µM. The TGI in experiment [1] came out at 4.64 µM; in experiment [2], 0.625 µM; in experiment [3] it was 2.58 µM; in experiment [4], 1.55 µM; in experiment [5] it was 0.381 µM; in experiment [6], 3.17 µM. The TGI in experiment [7] turned out to be 4.7 µM; in experiment [8], 2.18 µM.

For `O=C1N=C2c3c(sc4c3CCCC4)N=CN2C1N=Nc1ccc(Cl)cc1` (stereo not drawn), the GI50 in experiment [1] was 47.2 µM; in experiment [2], 21.9 µM; in experiment [3] it was 1.44 µM; in experiment [4], 24.4 µM; in experiment [5], 23.9 µM; in experiment [6], 13 µM. Further, the GI50 in experiment [7] is 3.2 µM; in experiment [8], 30.9 µM. For the same compound, the TGI is 97.6 µM in experiment [1]; more than 100 µM in experiment [2]; 18.1 µM in experiment [3]; 91.2 µM in experiment [4]; 87.2 µM in experiment [5]; 75.3 µM in experiment [6]. Moreover, the TGI is 27.6 µM in experiment [7] and more than 100 µM in experiment [8].

Consider `CCN(CC)c1ccc(/C=N/NC(=O)c2ccc(Nc3ccnc(C(F)(F)F)c3)cc2)c(O)c1`, for which the GI50 in experiment [1] was 0.324 µM; in experiment [2] it was 0.109 µM; in experiment [3], 0.38 µM; in experiment [4], 0.25 µM; in experiment [5] it was 0.482 µM; in experiment [6] it was 0.434 µM. The figures for the GI50 in experiment [7] and in experiment [8] were 0.12 µM and 0.268 µM, respectively. For the same compound, the TGI in experiment [1] was 8.36 µM; in experiment [2], more than 70.1 µM; in experiment [3], more than 34.9 µM; in experiment [4] it was 1.4 µM; in experiment [5], 5.7 µM; in experiment [6] it was more than 100 µM. Moreover, the TGI was 0.555 µM in experiment [7] and 2.07 µM in experiment [8].

Consider `CCCCCC(=O)N1c2ccccc2NC2=C(C(=O)CC(c3ccc(OC)c(OC)c3)C2)C1c1ccc(C(F)(F)F)cc1` (stereo not drawn), for which the GI50 is more than 100 µM in experiment [1]; more than 100 µM in experiment [2]; more than 100 µM in experiment [3]; more than 100 µM in experiment [4]; more than 100 µM in experiment [5]; 6.25 µM in experiment [6]. Further, the GI50 in experiment [7] is 5.98 µM; in experiment [8] it was 35.6 µM. The TGI in experiment [1], in experiment [2], in experiment [3], in experiment [4], in experiment [5] and in experiment [6] was more than 100 µM in each case. The TGI in experiment [7] and in experiment [8] was more than 100 µM throughout.

As to `N#Cc1c(NC(=O)c2cccs2)[n+]([O-])c2ccccc2[n+]1[O-]`, the GI50 in experiment [1] was 26 µM; in experiment [2], more than 100 µM; in experiment [3] it was more than 100 µM; in experiment [4], more than 100 µM; in experiment [5], 96.2 µM; in experiment [6] it was 64.9 µM. Further, the GI50 in experiment [7] and in experiment [8] was more than 100 µM each time. The TGI in experiment [1], in experiment [2], in experiment [3], in experiment [4], in experiment [5] and in experiment [6] was more than 100 µM each time. Besides, the TGI in experiment [7] and in experiment [8] was more than 100 µM throughout.
